Assays:
Assay type in all cases: in vivo
[1] = test system: redroot pigweed (Amaranthus retroflexus, AMARE); assay: Test A pre-emergence, redroot pigweed; settings: after 13 d
Outline: (§1)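 Seeds sown in pots of standard soil and sprayed one day later, pre-emergence, at 15.625, 62.5 or 250 g/ha in acetone/water (50:50) with 0.5% Tween 20. Grown in glasshouse at 24/16 °C, 14 h light, 65% humidity. Damage scored after 13 d (0 none, 100 total).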

[2] = test system: velvetleaf (Abutilon theophrasti, ABUTH); assay: Test A pre-emergence, velvetleaf; settings: after 13 d
Outline: as §1

[3] = test system: corn (Zea mays, ZEAMX); assay: Test A post-emergence, corn; settings: after 13 d
Outline: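 Plants sown in standard soil were grown 8 d in a glasshouse (24/16 °C day/night, 14 h light, 65% humidity), then sprayed with compound in acetone/water (50:50) with 0.5% Tween 20 at 15.625, 62.5 or 250 g/ha. Damage was scored after 13 d (0 = none, 100 = total).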

[4] = test system: plants; assay: Test D post-emergence, other plants of Tables D2 and D4; settings: "Cereals" Postemergent, evaluated after 15 d
Method: A formulation containing 50 g/L of the test chemical was prepared by dissolving the active ingredient in a mixture of organic solvents and emulsifier, details of which are provided in the table. This formulation was then mixed with a small, variable amount of acetone to aid dissolution, before addition of a 0.2% v/v aqueous solution of an adjuvant, as the aqueous diluent, to form an aqueous spray solution which contains a predetermined concentration of the active ingredient.
This aqueous spray solution was then sprayed onto plants including maize and wheat that had been seed treated with a herbicide safener, after one day's cultivation (for pre-emergence) or after about 12 days' cultivation (for post-emergence). The plants were grown from seeds sown in standard soil, placed in a glasshouse under controlled conditions (at 24/18° C. or 20/16° C., day/night; 16 h light; 65% humidity). After spray application the plants were then grown in a glasshouse under the same conditions and watered twice daily. After 15 d for post-emergence and 20 DAA for pre-emergence the test was evaluated (100=total damage to plant; 0=no damage to plant).

## CN1CC(c2cc(C(F)(F)F)n(C)n2)C(C(=O)Nc2ccc(F)c(F)c2F)C1=O (racemic) [Compound 17]
[1]; Pre-Emergence at 15.625 g/ha
  damage to plant (100=total damage; 0=no damage) AMARE: 0
[1]; Pre-Emergence at 62.5 g/ha
  damage to plant (100=total damage; 0=no damage) AMARE: 10
[1]; Pre-Emergence at 250 g/ha
  damage to plant (100=total damage; 0=no damage) AMARE: 20
[2]; Pre-Emergence at 15.625 g/ha
  damage to plant (100=total damage; 0=no damage) ABUTH: 0
[2]; Pre-Emergence at 62.5 g/ha
  damage to plant (100=total damage; 0=no damage) ABUTH: 0
[2]; Pre-Emergence at 250 g/ha
  damage to plant (100=total damage; 0=no damage) ABUTH: 10
[3]; Post-Emergence at 15.625 g/ha
  damage to plant (100=total damage; 0=no damage) ZEAMX: 10
[3]; Post-Emergence at 62.5 g/ha
  damage to plant (100=total damage; 0=no damage) ZEAMX: 50
[3]; Post-Emergence at 250 g/ha
  damage to plant (100=total damage; 0=no damage) ZEAMX: 80
[4]; Rates 130
  ALOMY damage rating (100=total damage to plant; 0=no damage to plant): 30
  AVEFA damage rating (100=total damage to plant; 0=no damage to plant): 0
  BEAVA damage rating (100=total damage to plant; 0=no damage to plant): 10
  BROTE damage rating (100=total damage to plant; 0=no damage to plant): 0
  BRSNN damage rating (100=total damage to plant; 0=no damage to plant): 0
  CHEAL damage rating (100=total damage to plant; 0=no damage to plant): 0
  GALAP damage rating (100=total damage to plant; 0=no damage to plant): 0
  HORVW damage rating (100=total damage to plant; 0=no damage to plant): 10
  KCHSC damage rating (100=total damage to plant; 0=no damage to plant): 0
  LOLPE damage rating (100=total damage to plant; 0=no damage to plant): 0
  POAAN damage rating (100=total damage to plant; 0=no damage to plant): 60
  POLCO damage rating (100=total damage to plant; 0=no damage to plant): 0
  STEME damage rating (100=total damage to plant; 0=no damage to plant): 0
[4]; Rates 250
  ALOMY damage rating (100=total damage to plant; 0=no damage to plant): 50
  AVEFA damage rating (100=total damage to plant; 0=no damage to plant): 30
  BEAVA damage rating (100=total damage to plant; 0=no damage to plant): 20
  BROTE damage rating (100=total damage to plant; 0=no damage to plant): 10
  BRSNN damage rating (100=total damage to plant; 0=no damage to plant): 20
  CHEAL damage rating (100=total damage to plant; 0=no damage to plant): 60
  GALAP damage rating (100=total damage to plant; 0=no damage to plant): 40
  HORVW damage rating (100=total damage to plant; 0=no damage to plant): 40
  KCHSC damage rating (100=total damage to plant; 0=no damage to plant): 0
  LOLPE damage rating (100=total damage to plant; 0=no damage to plant): 30
  POAAN damage rating (100=total damage to plant; 0=no damage to plant): 80
  POLCO damage rating (100=total damage to plant; 0=no damage to plant): 0
  STEME damage rating (100=total damage to plant; 0=no damage to plant): 0
[4]; Rates 500
  ALOMY damage rating (100=total damage to plant; 0=no damage to plant): 70
  AVEFA damage rating (100=total damage to plant; 0=no damage to plant): 60
  BEAVA damage rating (100=total damage to plant; 0=no damage to plant): 20
  BROTE damage rating (100=total damage to plant; 0=no damage to plant): 20
  BRSNN damage rating (100=total damage to plant; 0=no damage to plant): 20
  CHEAL damage rating (100=total damage to plant; 0=no damage to plant): 50
  GALAP damage rating (100=total damage to plant; 0=no damage to plant): 30
  HORVW damage rating (100=total damage to plant; 0=no damage to plant): 80
  KCHSC damage rating (100=total damage to plant; 0=no damage to plant): 20
  LOLPE damage rating (100=total damage to plant; 0=no damage to plant): 60
  POAAN damage rating (100=total damage to plant; 0=no damage to plant): 90
  POLCO damage rating (100=total damage to plant; 0=no damage to plant): 10
  STEME damage rating (100=total damage to plant; 0=no damage to plant): 30
[4]; SINAR, Rates 500
  SINAR damage rating (100=total damage to plant; 0=no damage to plant): 60

From patent publication US20220281848A1, “PYRAZOLE-SUBSTITUTED PYRROLIDINONES AS HERBICIDES” (FMC Corporation, priority 2019, published 2022)
